From ChEMBL document CHEMBL3045979, “Synthesis and antimicrobial activities of highly functionalised novel -lactam and thiazolidine-grafted tetrahydrobenzothiophenes” (2013)

Assays:
Type in all cases: functional
Aspergillus niger = assay: Antifungal activity against Aspergillus niger ATCC 16404 assessed as growth inhibition at 10 ug/mL after 72 hr by agar cup plate method; conditions: ATCC 16404, 72 h, read-out: DIZ
Aspergillus fumigatus = assay: Antifungal activity against Aspergillus fumigatus ATCC 28212 assessed as growth inhibition at 10 ug/mL after 72 hr by agar cup plate method; conditions: ATCC 28212, 72 h, read-out: DIZ
Bacillus spizizenii = assay: Antibacterial activity against Bacillus subtilis subsp. spizizenii ATCC 6633 assessed as growth inhibition at 10 ug/mL after 24 hr by agar disk diffusion method; conditions: ATCC 6633, 24 h, read-out: DIZ
Escherichia coli = assay: Antibacterial activity against Escherichia coli ATCC 35218 assessed as growth inhibition at 10 ug/mL after 24 hr by agar disc diffusion method; conditions: ATCC 35218, 24 h, read-out: DIZ

CS(=O)(=O)Nc1sc2c(c1C(=O)NN1C(=O)C(Cl)C1c1cc3ccccc3nc1Cl)CCCC2 (stereo unspecified)
zone of inhibition at 10 µg/mL (Aspergillus niger): 22 mm
zone of inhibition at 10 µg/mL (Aspergillus fumigatus): 6 mm
zone of inhibition at 10 µg/mL (Bacillus spizizenii): 6 mm
zone of inhibition at 10 µg/mL (Escherichia coli): 6 mm

CS(=O)(=O)Nc1sc2c(c1C(=O)NN1C(=O)C(Cl)C1c1ccc(Cl)cc1)CCCC2 (stereo unspecified)
zone of inhibition at 10 µg/mL (Aspergillus niger): 13 mm
zone of inhibition at 10 µg/mL (Aspergillus fumigatus): 5 mm
zone of inhibition at 10 µg/mL (Bacillus spizizenii): 8 mm
zone of inhibition at 10 µg/mL (Escherichia coli): 9 mm

Clc1ccccc1C(c1ccccc1)(c1ccccc1)n1ccnc1 [CLOTRIMAZOLE]
zone of inhibition at 10 µg/mL (Aspergillus niger): 21 mm
zone of inhibition at 10 µg/mL (Aspergillus fumigatus): 20 mm

COc1ccc(C2SCC(=O)N2NC(=O)c2c(NS(C)(=O)=O)sc3c2CCCC3)cc1OC (stereo unspecified)
zone of inhibition at 10 µg/mL (Aspergillus niger): 12 mm
zone of inhibition at 10 µg/mL (Aspergillus fumigatus): 6 mm
zone of inhibition at 10 µg/mL (Bacillus spizizenii): 6 mm
zone of inhibition at 10 µg/mL (Escherichia coli): 7 mm

CS(=O)(=O)Nc1sc2c(c1C(=O)NN1C(=O)CSC1c1ccc([N+](=O)[O-])cc1)CCCC2 (stereo unspecified)
zone of inhibition at 10 µg/mL (Aspergillus niger): 15 mm
zone of inhibition at 10 µg/mL (Aspergillus fumigatus): 8 mm
zone of inhibition at 10 µg/mL (Bacillus spizizenii): 8 mm
zone of inhibition at 10 µg/mL (Escherichia coli): 10 mm

COc1ccc(C2C(Cl)C(=O)N2NC(=O)c2c(NS(C)(=O)=O)sc3c2CCCC3)cc1OC (stereo unspecified)
zone of inhibition at 10 µg/mL (Aspergillus niger): 21 mm
zone of inhibition at 10 µg/mL (Aspergillus fumigatus): 9 mm
zone of inhibition at 10 µg/mL (Bacillus spizizenii): 7 mm
zone of inhibition at 10 µg/mL (Escherichia coli): 8 mm

CS(=O)(=O)Nc1sc2c(c1C(=O)NN1C(=O)C(Cl)C1c1ccccc1Cl)CCCC2 (stereo unspecified)
zone of inhibition at 10 µg/mL (Aspergillus niger): 15 mm
zone of inhibition at 10 µg/mL (Aspergillus fumigatus): 6 mm
zone of inhibition at 10 µg/mL (Bacillus spizizenii): 7 mm
zone of inhibition at 10 µg/mL (Escherichia coli): 7 mm

CS(=O)(=O)Nc1sc2c(c1C(=O)NN1C(=O)C(Cl)C1c1cccc([N+](=O)[O-])c1)CCCC2 (stereo unspecified)
zone of inhibition at 10 µg/mL (Aspergillus niger): 18 mm
zone of inhibition at 10 µg/mL (Aspergillus fumigatus): 8 mm
zone of inhibition at 10 µg/mL (Bacillus spizizenii): 7 mm
zone of inhibition at 10 µg/mL (Escherichia coli): 10 mm

CS(=O)(=O)Nc1sc2c(c1C(=O)NN1C(=O)CSC1c1cccc([N+](=O)[O-])c1)CCCC2 (stereo unspecified)
zone of inhibition at 10 µg/mL (Aspergillus niger): 14 mm
zone of inhibition at 10 µg/mL (Aspergillus fumigatus): 6 mm
zone of inhibition at 10 µg/mL (Bacillus spizizenii): 7 mm
zone of inhibition at 10 µg/mL (Escherichia coli): 7 mm

CS(=O)(=O)Nc1sc2c(c1C(=O)NN1C(=O)C(Cl)C1c1coc3ccccc3c1=O)CCCC2 (stereo unspecified)
zone of inhibition at 10 µg/mL (Aspergillus niger): 14 mm
zone of inhibition at 10 µg/mL (Aspergillus fumigatus): 7 mm
zone of inhibition at 10 µg/mL (Bacillus spizizenii): 6 mm
zone of inhibition at 10 µg/mL (Escherichia coli): 8 mm

COc1ccc(C2C(Cl)C(=O)N2NC(=O)c2c(NS(C)(=O)=O)sc3c2CCCC3)cc1 (stereo unspecified)
zone of inhibition at 10 µg/mL (Aspergillus niger): 12 mm
zone of inhibition at 10 µg/mL (Aspergillus fumigatus): 6 mm
zone of inhibition at 10 µg/mL (Bacillus spizizenii): 6 mm
zone of inhibition at 10 µg/mL (Escherichia coli): 8 mm

CS(=O)(=O)Nc1sc2c(c1C(=O)NN1C(=O)C(Cl)C1c1ccccc1)CCCC2 (stereo unspecified)
zone of inhibition at 10 µg/mL (Aspergillus niger): 13 mm
zone of inhibition at 10 µg/mL (Aspergillus fumigatus): 4 mm
zone of inhibition at 10 µg/mL (Bacillus spizizenii): 6 mm
zone of inhibition at 10 µg/mL (Escherichia coli): 6 mm

CS(=O)(=O)Nc1sc2c(c1C(=O)NN1C(=O)CSC1c1cc3ccccc3nc1Cl)CCCC2 (stereo unspecified)
zone of inhibition at 10 µg/mL (Aspergillus niger): 19 mm
zone of inhibition at 10 µg/mL (Aspergillus fumigatus): 8 mm
zone of inhibition at 10 µg/mL (Bacillus spizizenii): 6 mm
zone of inhibition at 10 µg/mL (Escherichia coli): 8 mm

CS(=O)(=O)Nc1sc2c(c1C(=O)NN1C(=O)CSC1c1ccccc1Cl)CCCC2 (stereo unspecified)
zone of inhibition at 10 µg/mL (Aspergillus niger): 20 mm
zone of inhibition at 10 µg/mL (Aspergillus fumigatus): 6 mm
zone of inhibition at 10 µg/mL (Bacillus spizizenii): 6 mm
zone of inhibition at 10 µg/mL (Escherichia coli): 11 mm

CS(=O)(=O)Nc1sc2c(c1C(=O)NN1C(=O)C(Cl)C1c1c[nH]c3ccccc13)CCCC2 (stereo unspecified)
zone of inhibition at 10 µg/mL (Aspergillus niger): 12 mm
zone of inhibition at 10 µg/mL (Aspergillus fumigatus): 7 mm
zone of inhibition at 10 µg/mL (Bacillus spizizenii): 7 mm
zone of inhibition at 10 µg/mL (Escherichia coli): 9 mm

CS(=O)(=O)Nc1sc2c(c1C(=O)NN1C(=O)CSC1c1ccccc1)CCCC2 (stereo unspecified)
zone of inhibition at 10 µg/mL (Aspergillus niger): 9 mm
zone of inhibition at 10 µg/mL (Aspergillus fumigatus): 5 mm
zone of inhibition at 10 µg/mL (Bacillus spizizenii): 5 mm
zone of inhibition at 10 µg/mL (Escherichia coli): 6 mm

COc1ccc(C2SCC(=O)N2NC(=O)c2c(NS(C)(=O)=O)sc3c2CCCC3)cc1 (stereo unspecified)
zone of inhibition at 10 µg/mL (Aspergillus niger): 14 mm
zone of inhibition at 10 µg/mL (Aspergillus fumigatus): 6 mm
zone of inhibition at 10 µg/mL (Bacillus spizizenii): 5 mm
zone of inhibition at 10 µg/mL (Escherichia coli): 11 mm

O=C(O)c1cn(C2CC2)c2cc(N3CCNCC3)c(F)cc2c1=O [CIPROFLOXACIN]
zone of inhibition at 10 µg/mL (Bacillus spizizenii): 9 mm
zone of inhibition at 10 µg/mL (Escherichia coli): 12 mm

CC(=O)N1CCN(c2ccc(OCC3COC(Cn4ccnc4)(c4ccc(Cl)cc4Cl)O3)cc2)CC1 (stereo unspecified) [KETOCONAZOLE]
zone of inhibition at 10 µg/mL (Aspergillus niger): 25 mm
zone of inhibition at 10 µg/mL (Aspergillus fumigatus): 10 mm

CS(=O)(=O)Nc1sc2c(c1C(=O)NN1C(=O)C(Cl)C1c1ccc([N+](=O)[O-])cc1)CCCC2 (stereo unspecified)
zone of inhibition at 10 µg/mL (Aspergillus niger): 16 mm
zone of inhibition at 10 µg/mL (Aspergillus fumigatus): 6 mm
zone of inhibition at 10 µg/mL (Bacillus spizizenii): 8 mm
zone of inhibition at 10 µg/mL (Escherichia coli): 10 mm

CS(=O)(=O)Nc1sc2c(c1C(=O)NN1C(=O)CSC1c1coc3ccccc3c1=O)CCCC2 (stereo unspecified)
zone of inhibition at 10 µg/mL (Aspergillus niger): 12 mm
zone of inhibition at 10 µg/mL (Aspergillus fumigatus): 4 mm
zone of inhibition at 10 µg/mL (Bacillus spizizenii): 7 mm
zone of inhibition at 10 µg/mL (Escherichia coli): 7 mm

CS(=O)(=O)Nc1sc2c(c1C(=O)NN1C(=O)CSC1c1c[nH]c3ccccc13)CCCC2 (stereo unspecified)
zone of inhibition at 10 µg/mL (Aspergillus niger): 18 mm
zone of inhibition at 10 µg/mL (Aspergillus fumigatus): 6 mm
zone of inhibition at 10 µg/mL (Bacillus spizizenii): 6 mm
zone of inhibition at 10 µg/mL (Escherichia coli): 10 mm

CS(=O)(=O)Nc1sc2c(c1C(=O)NN1C(=O)CSC1c1ccc(Cl)cc1)CCCC2 (stereo unspecified)
zone of inhibition at 10 µg/mL (Aspergillus niger): 13 mm
zone of inhibition at 10 µg/mL (Aspergillus fumigatus): 7 mm
zone of inhibition at 10 µg/mL (Bacillus spizizenii): 8 mm
zone of inhibition at 10 µg/mL (Escherichia coli): 8 mm
